In ChEMBL document CHEMBL1201862, “PubChem BioAssay data set” (2004):
The source made the active and inactive calls.

Legend:
[1] = target: Dual specificity protein phosphatase 3 (Homo sapiens, UniProt P51452); experiment: VHR1 phosphatase inhibitors, primary screen, biochemical, absorbance, uHTS (AID 1654)
[2] = target: T1, Dual specificity protein phosphatase 6 (Rattus norvegicus, UniProt Q64346); experiment: inhibition of rat DUSP6 enzyme activity – biochemical, in vitro, primary screen (AID 425)
T1 sequence (Q64346 whole entry): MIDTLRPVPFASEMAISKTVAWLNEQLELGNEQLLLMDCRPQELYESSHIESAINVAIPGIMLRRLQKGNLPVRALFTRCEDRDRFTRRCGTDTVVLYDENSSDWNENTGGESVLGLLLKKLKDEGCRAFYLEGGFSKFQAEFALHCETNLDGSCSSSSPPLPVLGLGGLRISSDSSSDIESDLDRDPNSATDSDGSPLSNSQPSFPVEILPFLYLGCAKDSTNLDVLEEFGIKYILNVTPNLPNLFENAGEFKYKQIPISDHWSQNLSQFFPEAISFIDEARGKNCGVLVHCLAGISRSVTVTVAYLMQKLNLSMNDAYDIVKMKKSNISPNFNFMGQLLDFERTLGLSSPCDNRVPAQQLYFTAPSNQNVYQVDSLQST

HeLa = experiment: viability loss in HeLa cells – cell-based, 24 h, cherry-picked samples, cytotoxicity control, dose response (AID 504726); format: functional; settings: Homo sapiens;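 further: potency for cytotoxicity as loss of luminescence signal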
Salmon testes DNA = experiment: acridine orange-DNA binding displacement – biochemical, fluorescence polarization, cherry-picked samples, set 2, artefact control for KSHV LANA DNA-binding inhibitor project, dose response (AID 504727); design: species or system Salmonidae
[3] = target: Cyclin-dependent kinase 5/CDK5 activator 1 (Homo sapiens, UniProt Q00535); experiment: blockade of human CDK5 activity – biochemical, cherry-picked samples, set 2, dose response (AID 504545)
Troponin, cardiac muscle = Troponin, cardiac muscle (Homo sapiens, UniProt P19429+P45379+P63316); experiment: compounds desensitizing RTF to calcium – biochemical, fluorescence, cardiac regulated thin filaments, triplicate IC50, dose response (AID 504742); format: protein-complex assay
[4] = target: T2, Endoribonuclease toxin MazF (Escherichia coli K-12, UniProt P0AE70); experiment: substrate-only fluorescence increase artefacts – biochemical, single-stranded RNase substrate, counter-screen for MazEF activator project, dose response (AID 588502); format: functional
T2 sequence (P0AE70 whole entry): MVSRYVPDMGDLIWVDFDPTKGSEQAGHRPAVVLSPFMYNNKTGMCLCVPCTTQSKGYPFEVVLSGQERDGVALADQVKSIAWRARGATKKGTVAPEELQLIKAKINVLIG

[5] = target: T3, Polyadenylate-binding protein 1 (Homo sapiens, UniProt P11940); experiment: MLLE binding blockers, Cy5 peptide tracer – biochemical, fluorescence polarization, Cy5-PAM2 peptide, secondary, miRNA deadenylation inhibitor project, dose response (AID 602260); format: functional; settings: read-out: IC50_Mean
[6] = target: T3, Polyadenylate-binding protein 1; experiment: MLLE domain peptide-binding blockers, IC50 – biochemical, fluorescence polarization, FITC-PAM2 peptide, dose response (AID 602259); format: functional; settings: read-out: IC50_Mean
Caspase-6 = Caspase-6 (Homo sapiens, UniProt P55212); experiment: inhibition of CASP6 peptide cleavage – biochemical, VEID-R110 fluorescence, cherry-pick, dose response (AID 720632)
[7] = target: T4, Histone-lysine N-methyltransferase NSD2 (Homo sapiens, UniProt O96028); format: biochemical
T4 sequence (O96028 whole entry): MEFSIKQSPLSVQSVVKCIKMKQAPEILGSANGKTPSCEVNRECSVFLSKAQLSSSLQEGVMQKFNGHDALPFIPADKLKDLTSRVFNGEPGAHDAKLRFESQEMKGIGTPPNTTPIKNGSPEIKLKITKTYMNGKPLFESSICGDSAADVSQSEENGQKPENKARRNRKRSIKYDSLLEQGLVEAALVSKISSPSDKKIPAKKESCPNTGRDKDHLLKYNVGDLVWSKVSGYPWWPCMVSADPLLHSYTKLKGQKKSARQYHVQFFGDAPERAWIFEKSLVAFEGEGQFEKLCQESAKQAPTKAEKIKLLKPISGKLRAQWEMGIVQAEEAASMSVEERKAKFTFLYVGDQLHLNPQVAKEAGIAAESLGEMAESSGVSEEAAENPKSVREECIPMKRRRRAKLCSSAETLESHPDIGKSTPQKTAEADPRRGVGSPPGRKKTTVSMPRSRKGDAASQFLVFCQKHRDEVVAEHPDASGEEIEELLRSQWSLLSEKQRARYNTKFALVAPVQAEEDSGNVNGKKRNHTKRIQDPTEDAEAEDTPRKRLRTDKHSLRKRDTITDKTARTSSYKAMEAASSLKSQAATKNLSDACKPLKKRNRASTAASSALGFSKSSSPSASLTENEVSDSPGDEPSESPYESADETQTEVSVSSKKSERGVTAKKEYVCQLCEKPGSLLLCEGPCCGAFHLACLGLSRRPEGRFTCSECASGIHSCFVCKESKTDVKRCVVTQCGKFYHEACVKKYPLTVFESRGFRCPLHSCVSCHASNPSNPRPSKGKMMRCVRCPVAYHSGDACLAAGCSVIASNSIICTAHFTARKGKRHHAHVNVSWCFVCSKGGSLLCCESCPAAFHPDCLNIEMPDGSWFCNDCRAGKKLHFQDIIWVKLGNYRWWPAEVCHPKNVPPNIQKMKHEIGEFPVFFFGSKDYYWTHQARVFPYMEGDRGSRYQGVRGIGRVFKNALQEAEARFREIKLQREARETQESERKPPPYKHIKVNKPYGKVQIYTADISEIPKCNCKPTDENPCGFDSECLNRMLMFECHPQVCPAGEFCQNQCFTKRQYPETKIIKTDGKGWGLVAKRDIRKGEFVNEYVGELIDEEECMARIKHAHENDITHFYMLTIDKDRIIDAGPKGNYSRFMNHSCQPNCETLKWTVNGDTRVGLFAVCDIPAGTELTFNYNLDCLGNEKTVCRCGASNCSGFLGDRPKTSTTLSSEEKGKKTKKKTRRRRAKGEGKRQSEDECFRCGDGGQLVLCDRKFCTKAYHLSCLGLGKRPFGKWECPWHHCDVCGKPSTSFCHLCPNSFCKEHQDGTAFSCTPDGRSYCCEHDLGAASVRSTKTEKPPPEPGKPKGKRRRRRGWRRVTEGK

Cytochrome P450 3A4 = Cytochrome P450 3A4 (Homo sapiens, UniProt P08684); settings: Potency;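 further: confirmatory qHTS run detecting inhibitors and substrates of CYP3A4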

O=c1c(O)cccc2cc(O)c(O)c(O)c12 [PURPUROGALLIN]
IC50 [1]: < 0.98 µM (inactive) | IC50 [2]: 29.2 µM (active) | AC50 (HeLa): 103 µM (active) | AC50 (Salmon testes DNA): 49.9 µM (active) | AC50 [3]: 23.2 µM (active) | IC50 (Troponin, cardiac muscle): 3.62 µM (active) | EC50 [4]: > 99 µM (inactive) | IC50 [5]: > 66 µM (inactive) | IC50 [6]: 47.9 µM (inactive) | AC50 (Caspase-6): 0.0804 µM (active) | AC50 [7]: 0.532 µM (active) | AC50 (Cytochrome P450 3A4): 31.6 µM (inconclusive)
